Measured values as given in patent US12690591B2, “Fungicidal composition containing oxadiazole compounds” (PI INDUSTRIES LIMITED, priority 2021, dated 2026).
Like-named read-outs stand apart in the source and are kept apart here.

Assays:
Corynespora cassiicola = Corynespora cassiicola test (tomato), preventive glasshouse spray test; format: in vivo; conditions: single compound
Pyricularia oryzae = test: whole plant or invertebrate; format: in vivo; conditions: for Observed Efficacy (%): preventive spray on rice plants
Phytopthora infestans = format: in vivo; conditions: single compound, tomato, preventive spray
Phakopsora pachyrhizi = Phakopsora pachyrhizi test (soybean), preventive glasshouse spray test; format: in vivo; conditions: for pest or weed control at 0.05 ppm / pest or weed control at 0.0001 ppm / pest or weed control at 0.001 ppm / pest or weed control at 0.01 ppm / pest or weed control at 0.1 ppm: Phakopsora pachyrhizi, read-out: Observed Efficacy (%)
Erysiphe cichoracearum = Erysiphe cichoracearum test (cucumber), preventive glasshouse spray test; conditions: preventive spray on cucumber plants
Septoria nodorum = test: Parastagonospora nodorum/Septoria nodorum/Stagnospora nodorum test (wheat), preventive glasshouse spray test; format: in vivo; conditions: preventive spray on wheat plants
Botrytis cinerea = Botrytis cinerea test (tomato), preventive glasshouse spray test; format: in vivo
Alternaria solani = Alternaria solani test (tomato plants), preventive glasshouse spray test; conditions: for pest or weed control at 1 ppm / pest or weed control at 5 ppm / pest or weed control at 10 ppm: Alternaria solani, in Solanum lycopersicum, read-out: Observed Efficacy (%)
[1] = tested on: Pseudoperonospora cubensis; test: Pseudoperonospora cubensis test (cucumber), preventive glasshouse spray test; format: in vivo
Text: The test solutions were poured into the spray bottles for further applications.

[2] = Table D1, single compound, 0.05 ppm, soybean, preventive spray
[3] = Pyricularia oryzae, read-out: Observed Efficacy (%)
[4] = Table G1, single compound, 0.1 ppm
[5] = Table G1, single compound, 0.05 ppm
[6] = single compound, Conc. 0.05 ppm
[7] = Table D3, single compound, 0.05 ppm, soybean, preventive spray
[8] = Table D3, single compound, 0.1 ppm, soybean, preventive spray

Compound: Cn1cc(C(=O)Nc2cccc3c2[C@@H]2CC[C@H]3C2=C(Cl)Cl)c(C(F)F)n1 (racemic) [Benzovindiflupyr, benzovindiflupyr]
- Observed Efficacy (%) (Corynespora cassiicola; Conc. 0.05 ppm): 18%

Compound: CO/C=C(/C(=O)OC)c1ccccc1Oc1cc(Oc2ccccc2C#N)ncn1 [Azoxystrobin, azoxystrobin, reference compound]
- Observed Efficacy (%) (Pyricularia oryzae; single compound at 0.1 ppm): 26%

Compound: O=C(Nc1ccccc1-c1ccc(Cl)cc1)c1cccnc1Cl [Boscalid, boscalid, reference compound]
- Observed Efficacy (%) (Phytopthora infestans; Conc. 0.1 ppm): 11%
- pest or weed control at 0.05 ppm (Phakopsora pachyrhizi; [2]): 27%

Compound: O=C(COc1ccc(F)cc1)c1ccc(-c2noc(C(F)(F)F)n2)cc1 [Compound (I-2), 2-(4-fluorophenoxy)-1-(4-(5-(trifluoromethyl)-1,2,4-oxadiazol-3-yl)phenyl)ethan-1-one]
- Observed Efficacy (%) (Erysiphe cichoracearum; single compound at 1 ppm): 13%
- pest or weed control at 1 ppm (Pyricularia oryzae; [3]): 17%
- pest or weed control at 10 ppm (Pyricularia oryzae; [3]): 37%
- Observed Efficacy (%) (Septoria nodorum; single compound at 1 ppm): 17%
- Observed Efficacy (%) (Septoria nodorum; single compound at 5 ppm): 20%
- Observed Efficacy (%) (Septoria nodorum; single compound at 10 ppm): 43%
- Observed Efficacy (%) (Botrytis cinerea; Table F1, single compound, 1 ppm, tomato, preventive spray): 20%
- Observed Efficacy (%) (Botrytis cinerea; Table F1, single compound, 5 ppm, tomato, preventive spray): 27%
- Observed Efficacy (%) (Botrytis cinerea; Table F1, single compound, 10 ppm, tomato, preventive spray): 47%
- pest or weed control at 0.0001 ppm (Phakopsora pachyrhizi; Table D1, single compound, 0.0001 ppm, soybean, preventive spray): 40%
- pest or weed control at 0.001 ppm (Phakopsora pachyrhizi; Table D1, single compound, 0.001 ppm, soybean, preventive spray): 50%
- pest or weed control at 0.01 ppm (Phakopsora pachyrhizi; Table D1, single compound, soybean, preventive spray): 62%
- pest or weed control at 1 ppm (Alternaria solani): 34%
- pest or weed control at 5 ppm (Alternaria solani): 42%
- pest or weed control at 10 ppm (Alternaria solani): 47%

Compound: O=C(COc1ccc(F)nc1)c1ccc(-c2noc(C(F)(F)F)n2)cc1 [Compound (I-3), 2-((6-fluoropyridin-3-yl)oxy)-1-(4-(5-(trifluoromethyl)-1,2,4-oxadiazol-3-yl)phenyl)ethan-1-one]
- Observed Efficacy (%) [1, 4]: 36%
- Observed Efficacy (%) ([1]; Table G1, single compound, 1 ppm): 32%
- Observed Efficacy (%) ([1]; Table G1, single compound, 10 ppm): 34%
- Observed Efficacy (%) (Erysiphe cichoracearum; single compound at 1 ppm): 35%
- Observed Efficacy (%) (Erysiphe cichoracearum; single compound at 5 ppm): 37%
- Observed Efficacy (%) (Erysiphe cichoracearum; single compound at 10 ppm): 39%
- pest or weed control at 10 ppm (Pyricularia oryzae; [3]): 42%
- Observed Efficacy (%) (Corynespora cassiicola; Conc. 5 ppm): 36%
- Observed Efficacy (%) (Corynespora cassiicola; Conc. 10 ppm): 45%
- Observed Efficacy (%) (Botrytis cinerea; single compound at 10 ppm, preventive spray on tomato plants): 20%
- pest or weed control at 0.0001 ppm (Phakopsora pachyrhizi; single compound at 0.0001 ppm, preventive spray on soybean plants): 43%
- pest or weed control at 0.001 ppm (Phakopsora pachyrhizi; single compound at 0.001 ppm, preventive spray on soybean plants): 50%
- pest or weed control at 1 ppm (Alternaria solani): 35%
- pest or weed control at 5 ppm (Alternaria solani): 40%
- pest or weed control at 10 ppm (Alternaria solani): 47%

Compound: O=C(CNc1ccc(F)cc1)c1ccc(-c2noc(C(F)(F)F)n2)cc1 [Compound (I-8), 2-((4-fluorophenyl)amino)-1-(4-(5-(trifluoromethyl)-1,2,4-oxadiazol-3-yl)phenyl)ethan-1-one]
- Observed Efficacy (%) ([1]; single compound, Conc. 1 ppm): 17%
- Observed Efficacy (%) ([1]; single compound, Conc. 5 ppm): 19%
- Observed Efficacy (%) ([1]; single compound, Conc. 10 ppm): 28%
- Observed Efficacy (%) (Erysiphe cichoracearum; single compound at 1 ppm): 19%
- Observed Efficacy (%) (Erysiphe cichoracearum; single compound at 5 ppm): 25%
- Observed Efficacy (%) (Erysiphe cichoracearum; single compound at 10 ppm): 31%
- pest or weed control at 1 ppm (Pyricularia oryzae; [3]): 17%
- pest or weed control at 5 ppm (Pyricularia oryzae; [3]): 22%
- pest or weed control at 10 ppm (Pyricularia oryzae; [3]): 31%
- Observed Efficacy (%) (Phytopthora infestans; Conc. 1 ppm): 32%
- Observed Efficacy (%) (Phytopthora infestans; Conc. 5 ppm): 42%
- pest or weed control at 0.0001 ppm (Phakopsora pachyrhizi; Table D3, single compound, 0.0001 ppm, soybean, preventive spray): 37%
- pest or weed control at 0.001 ppm (Phakopsora pachyrhizi; Table D3, single compound, 0.001 ppm, soybean, preventive spray): 47%
- pest or weed control at 0.01 ppm (Phakopsora pachyrhizi; Table D3, single compound, soybean, preventive spray): 60%
- pest or weed control at 1 ppm (Alternaria solani): 26%
- pest or weed control at 5 ppm (Alternaria solani): 37%
- pest or weed control at 10 ppm (Alternaria solani): 47%

Compound: N#Cc1sc2c(=O)c3ccccc3c(=O)c=2sc1C#N [Dithianon, dithianon]
- Observed Efficacy (%) (Septoria nodorum; single compound at 0.1 ppm): 16%

Compound: O=[N+]([O-])c1cc(C(F)(F)F)c(Cl)c([N+](=O)[O-])c1Nc1ncc(C(F)(F)F)cc1Cl [Fluazinam, fluazinam]
- Observed Efficacy (%) (Septoria nodorum; single compound at 0.1 ppm): 21%
- Observed Efficacy (%) (Corynespora cassiicola; Conc. 0.1 ppm): 12%

Compound: CC1CC(C)(C)c2c(F)ccc(NC(=O)c3cn(C)nc3C(F)F)c21 (centres unmarked) [Fluindapyr, fluindapyr, reference compound]
- Observed Efficacy (%) [1, 5]: 35%
- Observed Efficacy (%) (Pyricularia oryzae; single compound at 0.05 ppm): 11%

Compound: O=C(NCCc1ncc(C(F)(F)F)cc1Cl)c1ccccc1C(F)(F)F [Fluopyram, fluopyram]
- Observed Efficacy (%) [1, 5]: 2%
- Observed Efficacy (%) [1, 4]: 12%
- Observed Efficacy (%) [1, 6]: 2%
- Observed Efficacy (%) ([1]; single compound, Conc. 0.1 ppm): 12%
- Observed Efficacy (%) (Septoria nodorum; single compound at 0.05 ppm): 8%
- Observed Efficacy (%) (Septoria nodorum; single compound at 0.1 ppm): 21%

Compound: O=C1c2ccccc2C(=O)N1SC(Cl)(Cl)Cl [Folpet, folpet, reference compound]
- Observed Efficacy (%) (Phytopthora infestans; Conc. 0.1 ppm): 11%
- Observed Efficacy (%) (Botrytis cinerea; Table F1, single compound, 0.1 ppm, tomato, preventive spray): 38%

Compound: CC1CC(C)(C)c2c(F)ccc(NC(=O)c3cn(C)nc3C(F)F)c21 (centres unmarked) [Inpyrfluxam, inpyrfluxam]
- Observed Efficacy (%) (Septoria nodorum; single compound at 0.05 ppm): 12%
- Observed Efficacy (%) (Corynespora cassiicola; Conc. 0.05 ppm): 16%
- Observed Efficacy (%) (Phakopsora pachyrhizi; [2]): 18%
- Observed Efficacy (%) (Alternaria solani; single compound at 0.1 ppm, preventive spray on tomato plants): 23%

Compound: CC(O)(Cn1cncn1)c1ccc(Oc2ccc(Cl)cc2)cc1C(F)(F)F (centres unmarked) [Mefentrifluconazole, mefentrifluconazole]
- Observed Efficacy (%) (Phakopsora pachyrhizi; [7]): 32%
- Observed Efficacy (%) (Phakopsora pachyrhizi; [8]): 44%

Compound: CNC(=O)/C(=N/OC)c1ccccc1Oc1ccccc1 [Metominostrobin, metominostrobin]
- Observed Efficacy (%) (Septoria nodorum; single compound at 0.05 ppm): 6%
- Observed Efficacy (%) (Septoria nodorum; single compound at 0.1 ppm): 12%

Compound: OC(Cc1ccccc1Cl)(Cn1nc[nH]c1=S)C1(Cl)CC1 (centres unmarked) [Prothioconazole, prothioconazole]
- Observed Efficacy (%) ([1]; single compound, Conc. 0.1 ppm): 45%
- pest or weed control at 0.1 ppm (Phakopsora pachyrhizi; Table D1, single compound, 0.1 ppm, soybean, preventive spray): 48%
- Observed Efficacy (%) (Phakopsora pachyrhizi; [8]): 48%

Compound: COC(=O)N(OC)c1ccccc1COc1ccn(-c2ccc(Cl)cc2)n1 [Pyraclostrobin, pyraclostrobin]
- pest or weed control at 0.05 ppm (Phakopsora pachyrhizi; [7]): 37%
- pest or weed control at 0.1 ppm (Phakopsora pachyrhizi; [8]): 46%

Compound: mancozeb
- Observed Efficacy (%) [1, 5]: 2%
- Observed Efficacy (%) [1, 4]: 5%
- Observed Efficacy (%) [1, 6]: 2%
- Observed Efficacy (%) ([1]; single compound, Conc. 0.1 ppm): 5%
- Observed Efficacy (%) (Corynespora cassiicola; Conc. 0.05 ppm): 10%

Compound: metiram [reference compound]
- Observed Efficacy (%) (Pyricularia oryzae; single compound at 0.1 ppm): 18%
